Source: patent US20150374673A1, “Combination Therapy for the Treatment of Nosocomial Pneumonia” (priority 2013, published 2015)
“Also recorded” adds a separate entry of the source. Read-outs that look alike come from different tables or passages of the source.

Assays:
K. pneumoniae = test: Initial MIC, microbroth dilution (CLSI), avibactam 4 mg/L; format: cell-based; settings: Klebsiella pneumoniae
Procedure: (§1) All MIC determinations including those performed in the checkerboard assay were done in cation-adjusted Mueller-Hinton broth (purchased from Becton Dickinson, Oxford UK).
(§2) Initial MIC data were determined by microbroth dilution methods as recommended by CLSI (2012b). Checkerboards were made in accordance with the method given by Pillai et. al., ? Antimicrobial Combinations in Antibiotics, LABORATORY MEDICINE (Lorian Ed., 3rd Ed. (2003)) p. 365-440 as per standard microbroth dilution tests but with agents in combination. […] A final avibactam concentration of 4 mg/L was used throughout the study. Antibacterial agents were combined into microtitre plates using the Evolution III liquid handling system.

P. aeruginosa [1] = test: as above; format: cell-based; settings: Pseudomonas aeruginosa
Procedure: as §1, §2

Gram-negative isolates = test: MIC alone compared with MIC in presence of Cmax and 0.5×Cmax of vancomycin and linezolid, all Gram-negative isolates; format: cell-based; settings: with Cmax and 0.5×Cmax of vancomycin and linezolid
Procedure: as §2

[2] = Serum and ELF pharmacokinetics of ceftazidime regimens (human simulated and directed ELF fT>MIC) in infected mice; format: in vivo, female ICR mice; settings: MICs of 32 μg/mL; ceftazidime directed ELF fT>MIC regimen
Procedure: Confirmatory pharmacokinetic studies were undertaken in infected mice and pharmacodynamic analyses and an assessment of ELF fT>MIC was made from the resulting concentration-time profile.
(§3) It has been observed in surveillance studies that the MIC90 for ceftazidime-avibactam against P. aeruginosa is 8 μg/mL (10-12). Given this, there are few isolates with higher MICs and the number that would grow within the murine lung infection model is even less. […] Doses of the previous humanized regimen described above were […] throughout the dosing period and further pharmacokinetic studies were performed. […] Mice were euthanized and serum and BAL samples were collected, as described above, at predetermined times.

P. aeruginosa [3] = test: In vivo efficacy, ceftazidime human simulated regimen, neutropenic lung infection model (ICR mice); set-up: species or system Pseudomonas aeruginosa; settings: 24 h
Procedure: Groups of mice were administered the ceftazidime regimen beginning two hours after the initiation of infection. All doses were administered as 0.2 mL subcutaneous injections and consisted of three 8-hour dosing intervals (i.e. 24 hours). To serve as control animals, an additional group of mice were administered normal saline at the same volume, route, and frequency as the treatment regimen. Harvesting and processing of lungs from each animal was done as previously described and efficacy was defined as the change in bacterial density, calculated as the change in log10 bacterial CFU obtained for treated mice after 24 h from that of that starting densities observed in 0 h control animals.

P. aeruginosa [4] = test: In vivo efficacy, ceftazidime directed ELF fT>MIC regimen, neutropenic lung infection model (ICR mice); set-up: species or system Pseudomonas aeruginosa; settings: for Change log CFU Mean: 24 h
Procedure: as §3
For these studies, 9 P. aeruginosa isolates were evaluated against the CAZ regimen in mice that yielded specific ELF fT>MIC. Doses were initiated 2 hours after inoculation of the test organisms ? and all doses were administered as 0.2 mL subcutaneous injections and consisted of three 8 hour dosing intervals (i.e. 24 hours). To serve as control animals, an additional group of mice were administered normal saline at the same volume, route, and frequency as the treatment regimen. The harvesting procedure for all study mice began with euthanization by CO2 exposure followed by cervical dislocation. After sacrifice, lungs were removed and individually homogenized in normal saline. Serial dilutions of the lung homogenate were plated on trypticase soy agar with 5% sheep blood for CFU determination. In addition to the above mentioned treatment and control groups, another group of 6 infected, untreated mice were harvested at the initiation of dosing and served as 0 h controls. Efficacy, designated as the change in bacterial density, was calculated as the change in log10 bacterial CFU obtained for treated mice after 24 h from that of that starting densities observed in 0 h control animals.

Pseudomonas aeruginosa = test: MIC of ceftazidime-resistant P. aeruginosa strains, microdilution according to ISO guidelines; format: cell-based
Procedure: (§4) Seven well-characterized ceftazidime-resistant Pseudomonas aeruginosa strains, obtained from a variety of clinically relevant sources, were used in the experiments as shown in Table 1. MICs were taken from an earlier in vitro checkerboard study (Berkhout & Mouton 2013 CAZ-AVI-M1-061) and were determined by microdilution according to the ISO-guidelines (ISO 2006). This method is CLSI compatible.
as §4, with “[…].” for “Table 1.”, “determined in” for “taken from”, “(AstraZeneca study report #” for “(Berkhout & Mouton 2013”

## CC(C)(O/N=C(\C(=O)N[C@@H]1C(=O)N2C(C(=O)[O-])=C(C[n+]3ccccc3)CS[C@H]12)c1csc(N)n1)C(=O)O [ceftazidime, (6R,7R)-7-[[(2Z)-2-(2-amino-1,3-thiazol-4-yl)-2-(1-hydroxy-2-methyl-1-oxopropan-2-yl)oxyiminoacetyl]amino]-8-oxo-3-(pyridin-1-ium-1-ylmethyl)-5-thia-1-azabicyclo[4.2.0]oct-2-ene-2-carboxylate pentahydrate]
K. pneumoniae; isolate 9 K. pneumoniae Basal MICs, read-out: MIC
  MIC: 0.12 µg/mL
K. pneumoniae; isolate 10 K. pneumoniae TEM-4, read-out: MIC
  MIC: 32 µg/mL
K. pneumoniae; isolate 11 K. pneumoniae CTX-M-15, read-out: MIC
  MIC: 32 µg/mL
K. pneumoniae; isolate 12 K. pneumoniae SHV-12, read-out: MIC
  MIC: 64 µg/mL
K. pneumoniae; isolate 13 K. pneumoniae KPC-3
  MIC: 128 µg/mL
K. pneumoniae; isolate 14 K. pneumoniae KPC-3, read-out: MIC
  MIC: 16 µg/mL
K. pneumoniae; isolate 15 K. pneumoniae KPC-2, read-out: MIC
  MIC: 64 µg/mL
P. aeruginosa [1]; isolate 16 P. aeruginosa Basal MICs, read-out: MIC
  MIC: 1 µg/mL
P. aeruginosa [1]; isolate 17 P. aeruginosa Derepressed AmpC, read-out: MIC
  MIC: 8 µg/mL
P. aeruginosa [1]; isolate 18 P. aeruginosa Derepressed AmpC, read-out: MIC
  MIC: 64 µg/mL
P. aeruginosa [1]; isolate 19 P. aeruginosa PER, read-out: MIC
  MIC: 128 µg/mL
P. aeruginosa [1]; isolate 20 P. aeruginosa KPC-2
  MIC: 128 µg/mL
P. aeruginosa [1]; isolate 21 P. aeruginosa KPC-2, read-out: MIC
  MIC: 64 µg/mL
Gram-negative isolates
  MIC alone and in combination: remained within one doubling dilution in all cases
[2]
  ELF fT>MIC: 12%
P. aeruginosa [3]; isolate PSA 1-25, control 0 h 6.21, 24 h 10.01
  Change log CFU Mean: 6.42 log CFU
P. aeruginosa [3]; isolate PSA 3-9, control 0 h 6.45, 24 h 7.77
  Change log CFU Mean: 6.48 log CFU
P. aeruginosa [3]; isolate PSA 4-32, control 0 h 5.56, 24 h 9.34
  Change log CFU Mean: 3.57 log CFU
P. aeruginosa [3]; isolate PSA 4-36, control 0 h 6.53, 24 h 9.72
  Change log CFU Mean: 5.01 log CFU
P. aeruginosa [3]; isolate PSA 4-84, control 0 h 6.16, 24 h 9.66
  Change log CFU Mean: 4.88 log CFU
P. aeruginosa [3]; isolate PSA 8-16, control 0 h 5.93, 24 h 9.94
  Change log CFU Mean: 5.38 log CFU
P. aeruginosa [3]; isolate PSA 22, control 0 h 5.99, 24 h 9.15
  Change log CFU Mean: 4.83 log CFU
P. aeruginosa [3]; isolate PSA 28-19, control 0 h 6.46, 24 h 9.8
  Change log CFU Mean: 5.07 log CFU
P. aeruginosa [3]; isolate PSA 37-8, control 0 h 6.02, 24 h 8.26
  Change log CFU Mean: 3.8 log CFU
P. aeruginosa [4]; directed ELF fT>MIC regimen, isolates with MICs of 32 μg/mL
  activity in neutropenic lung infection model: Activity was observed
P. aeruginosa [4]; in vivo
  activity in neutropenic lung infection model: Efficacy was variable; also recorded: little to no activity
P. aeruginosa [4]; isolate PSA 968, control 0 h 5.98, 24 h 9.76
  Change log CFU Mean: 4.45 log CFU
P. aeruginosa [4]; isolate PSA 1382, control 0 h 5.91, 24 h 8.64
  Change log CFU Mean: 6.42 log CFU
P. aeruginosa [4]; isolate PSA 1383, control 0 h 5.77, 24 h 7.29
  Change log CFU Mean: 3.73 log CFU
P. aeruginosa [4]; isolate PSA 1384, control 0 h 5.86, 24 h 7.61
  Change log CFU Mean: 4.4 log CFU
P. aeruginosa [4]; isolate PSA 1386, control 0 h 5.79, 24 h 9.67
  Change log CFU Mean: 5.98 log CFU
P. aeruginosa [4]; isolate PSA 1387, control 0 h 6.39, 24 h 9.45
  Change log CFU Mean: 4.23 log CFU
P. aeruginosa [4]; isolate PSA 1388, control 0 h 5.86, 24 h 8.39
  Change log CFU Mean: 5.54 log CFU
P. aeruginosa [4]; isolate PSA 1389, control 0 h 5.68, 24 h 9.67
  Change log CFU Mean: 6.3 log CFU
P. aeruginosa [4]; isolate PSA 1394, control 0 h 5.58, 24 h 7.73
  Change log CFU Mean: 5.96 log CFU
Pseudomonas aeruginosa; P. aeruginosa isolate no. 1, CAZ-AVI determined at 4 mg/L avibactam
  MIC: 128 µg/mL
Pseudomonas aeruginosa; P. aeruginosa isolate no. 11, CAZ-AVI determined at 4 mg/L avibactam
  MIC: 128 µg/mL
Pseudomonas aeruginosa; Pseudomonas aeruginosa
  MIC: 128 µg/mL
Pseudomonas aeruginosa; Pseudomonas aeruginosa, P. aeruginosa isolate no. 3, CAZ-AVI determined at 4 mg/L avibactam, read-out: MIC
  MIC: 64 µg/mL
Pseudomonas aeruginosa; Pseudomonas aeruginosa, P. aeruginosa isolate no. 7, CAZ-AVI determined at 4 mg/L avibactam, read-out: MIC
  MIC: 64 µg/mL
Pseudomonas aeruginosa; Pseudomonas aeruginosa, P. aeruginosa isolate no. 18, CAZ-AVI determined at 4 mg/L avibactam, read-out: MIC
  MIC: 32 µg/mL
Pseudomonas aeruginosa; Pseudomonas aeruginosa, P. aeruginosa isolate no. 19, CAZ-AVI determined at 4 mg/L avibactam, read-out: MIC
  MIC: 64 µg/mL
